Results published in patent US20050014847A1, “Ambroxol for the treatment of chronic nociceptive pain” (Boehringer Ingelheim International GmbH, priority 2003, published 2005).

How the values were obtained:
[1] = system: Tetrodotoxin-sensitive currents (sodium channels); assay type: cell-based, rat; settings: read-out: IC50 tetrodotoxin-sensitive currents; neuron cultures from posterior root ganglia of adult rats
human GluR1/2 receptors = biological target: T1, human GluR1/2 receptors (Homo sapiens, UniProt P42261+P42262); experiment: Patch-Clamp inhibition of glutamate-induced membrane currents in HEK 293 cells; assay type: cell-based; settings: HEK 293 cells expressing recombinant human GluR1/2, 1 mM glutamate for 1 s, holding potential −80 mV
T1 construct: expressed in transfected cells; host or cells: HEK 293
Description: Ionotropic glutamate receptors of the AMPA sub-type are also essential for the excitatory neurotransmission. […] HEK 293 cells which expressed functionally recombinant human GluR1/2 receptors were electrophysiologically investigated by the Patch-Clamp method ([…]). The administration of 1 mM glutamate (for 1 s at a holding potential of −80 mV) induced membrane currents which were inhibited by the joint administration of ambroxol.

T1 sequence (P42261 19-906): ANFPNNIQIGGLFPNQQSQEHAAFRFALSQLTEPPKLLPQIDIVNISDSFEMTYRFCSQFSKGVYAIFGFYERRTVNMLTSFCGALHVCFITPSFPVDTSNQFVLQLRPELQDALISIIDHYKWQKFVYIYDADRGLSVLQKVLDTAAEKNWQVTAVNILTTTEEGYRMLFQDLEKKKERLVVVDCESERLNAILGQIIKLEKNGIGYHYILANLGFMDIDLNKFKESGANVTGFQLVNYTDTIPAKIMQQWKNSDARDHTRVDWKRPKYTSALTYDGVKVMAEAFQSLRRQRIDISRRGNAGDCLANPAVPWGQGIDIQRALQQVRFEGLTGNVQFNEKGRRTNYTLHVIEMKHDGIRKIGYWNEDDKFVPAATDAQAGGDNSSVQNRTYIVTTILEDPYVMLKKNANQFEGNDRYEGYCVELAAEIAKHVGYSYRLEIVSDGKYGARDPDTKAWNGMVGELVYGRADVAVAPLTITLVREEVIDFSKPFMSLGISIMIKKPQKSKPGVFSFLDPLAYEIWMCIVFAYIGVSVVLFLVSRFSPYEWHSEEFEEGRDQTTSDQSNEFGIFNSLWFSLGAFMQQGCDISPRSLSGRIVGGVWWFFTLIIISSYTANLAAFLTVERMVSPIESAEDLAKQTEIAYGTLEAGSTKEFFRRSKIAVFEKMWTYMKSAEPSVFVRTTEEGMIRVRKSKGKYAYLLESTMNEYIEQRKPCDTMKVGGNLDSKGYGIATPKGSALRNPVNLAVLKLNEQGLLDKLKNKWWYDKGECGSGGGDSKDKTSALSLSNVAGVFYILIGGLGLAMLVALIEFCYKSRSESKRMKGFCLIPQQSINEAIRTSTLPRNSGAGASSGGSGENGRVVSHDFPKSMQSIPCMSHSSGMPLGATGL
T1 sequence (P42262 22-883 limits assumed): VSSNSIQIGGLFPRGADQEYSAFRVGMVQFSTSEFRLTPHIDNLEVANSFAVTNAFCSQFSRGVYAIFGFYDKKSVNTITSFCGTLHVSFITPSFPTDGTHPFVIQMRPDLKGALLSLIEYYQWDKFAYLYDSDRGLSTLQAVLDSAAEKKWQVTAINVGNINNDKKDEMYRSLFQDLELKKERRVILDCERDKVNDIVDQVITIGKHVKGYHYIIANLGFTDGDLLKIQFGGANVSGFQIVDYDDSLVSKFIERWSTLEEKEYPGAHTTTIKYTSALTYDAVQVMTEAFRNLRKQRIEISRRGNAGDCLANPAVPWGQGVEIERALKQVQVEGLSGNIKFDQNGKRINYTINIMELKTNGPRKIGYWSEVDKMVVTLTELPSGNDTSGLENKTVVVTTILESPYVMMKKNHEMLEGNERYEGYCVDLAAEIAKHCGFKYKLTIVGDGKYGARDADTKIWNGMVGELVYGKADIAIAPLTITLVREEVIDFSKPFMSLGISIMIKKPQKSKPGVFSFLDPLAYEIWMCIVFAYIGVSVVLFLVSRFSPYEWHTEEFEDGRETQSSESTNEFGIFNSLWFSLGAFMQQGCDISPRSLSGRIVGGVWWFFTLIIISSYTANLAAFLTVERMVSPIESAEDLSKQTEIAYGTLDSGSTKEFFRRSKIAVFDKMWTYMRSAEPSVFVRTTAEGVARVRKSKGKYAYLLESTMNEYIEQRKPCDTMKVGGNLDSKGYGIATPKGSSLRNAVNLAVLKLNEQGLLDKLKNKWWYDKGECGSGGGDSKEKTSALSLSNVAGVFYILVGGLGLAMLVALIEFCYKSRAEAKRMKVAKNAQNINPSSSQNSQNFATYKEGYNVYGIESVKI

SMILES: Nc1c(Br)cc(Br)cc1CN[C@H]1CC[C@H](O)CC1 [ambroxol, trans-4-(2-amino-3,5-dibromobenzylamino)cyclohexanol]
- IC50 [1]: > 100 µM
- concentrations inhibiting glutamate-induced membrane currents (human GluR1/2 receptors): 30 to 1000 µM
